{
  "source": "patent US20250107526A1",
  "about": "“METHOD OF IMPROVING PLANT GROWTH” (UPL CORPORATION LIMITED, priority 2022, published 2025)",
  "type_in_all_cases": "in vivo",
  "key": {"[1]": {"tested_on": "wheat grains", "experiment": "Plant growth improvement of wheat grains treated with cyazofamid, field trials", "from_the_text": "The present inventors have determined the plant growth improvement in wheat grains treated with cyazofamid in field trials. The treatments employed have been depicted in table 4 below. The results in terms of crop establishment in field, root weight, shoot weight and the total plant weight have been indicated in table 5 below: [table]"}, "[2]": {"tested_on": "maize seeds inoculated with Pythium ultimum", "experiment": "Emergence and vigor of maize seeds inoculated with Pythium ultimum after cyazofamid seed treatment (growth chamber)", "conditions": "160 g/l suspension concentrate, 20 days after sowing", "procedure": "An inoculum of Pythium ultimum isolated from cotton was used to inoculate maize seeds. The infected maize grains were mixed with soil in a ratio of 10:90 v/v, respectively. The seeds were treated as depicted in the Table 1 below. The seeds used in treatments 1, 3 and 4 were inoculated with Pythium ultimum. The said seeds were cultivated in a growth chamber at a temperature of 22° C., for a 10 h dark/14 h light photoperiod. The seed arrangement was 10 seeds/plot (pot 10×10 cm); 3rep1/treatment. [table] The % emergence of seeds and the % vigor was observed 20 days after sowing of seeds."}, "[3]": {"tested_on": "Cotton seeds", "experiment": "Emergence speed index (ESI) of treated seeds, cotton", "conditions": "suspension concentrate of 40% cyazofamid", "procedure": "(§1) The seed emergence index was evaluated for seeds of different crops including corn, cotton and wheat treated with cyazofamid. The treatment protocol and the results are disclosed in the table below. […] A suspension concentrate of 40% cyazofamid was used in the treatment."}, "[4]": {"tested_on": "Corn seeds", "experiment": "Emergence speed index (ESI) of treated seeds, corn", "conditions": "suspension concentrate of 40% cyazofamid", "procedure": "as §1"}, "[5]": {"tested_on": "Wheat seeds", "experiment": "Emergence speed index (ESI) of treated seeds, wheat", "conditions": "suspension concentrate of 40% cyazofamid", "procedure": "as §1"}, "[6]": {"tested_on": "seeds of different crops including corn, cotton and wheat", "procedure": "as §1"}, "[7]": {"conditions": "10 g ai/100 kg (25 ml/100 kg seeds)"}, "[8]": {"conditions": "20 g ai/100 kg (50 ml/100 kg seeds)"}, "[9]": {"conditions": "30 g ai/100 kg (75 ml/100 kg seeds)"}, "[10]": {"conditions": "50 g ai/100 kg (125 ml/100 kg seeds)"}, "[11]": {"conditions": "100 g ai/100 kg (250 ml/100 kg seeds)"}, "[12]": {"conditions": "seed treatment 10 g/100/kg seeds"}, "[13]": {"conditions": "seed treatment 50 g/100/kg seeds"}},
  "data": [
    {"molecule": "Cc1ccc(-c2c(Cl)nc(C#N)n2S(=O)(=O)N(C)C)cc1", "note": "[Cyazofamid, 4-chloro-2-cyano-N, N-dimethyl-5-p-tolylimidazole-1-sulfonamide]", "values": [
      {"measurement": "Root weight", "setting": "[1]; [7]", "result": 3.1, "unit": "g"},
      {"measurement": "Shoot weight", "setting": "[1]; [7]", "result": 5.9, "unit": "g"},
      {"measurement": "Total plant weight", "setting": "[1]; [7]", "result": 9.0, "unit": "g"},
      {"measurement": "Crop establishment plants/m row 25 DAA", "setting": "[1]; [7]", "result": 81.5, "unit": "plants/m row"},
      {"measurement": "Crop establishment plants/m row 38 DAA", "setting": "[1]; [7]", "result": 74.5, "unit": "plants/m row"},
      {"measurement": "Root weight", "setting": "[1]; [8]", "result": 3.1, "unit": "g"},
      {"measurement": "Shoot weight", "setting": "[1]; [8]", "result": 5.3, "unit": "g"},
      {"measurement": "Total plant weight", "setting": "[1]; [8]", "result": 8.4, "unit": "g"},
      {"measurement": "Crop establishment plants/m row 25 DAA", "setting": "[1]; [8]", "result": 73.1, "unit": "plants/m row"},
      {"measurement": "Crop establishment plants/m row 38 DAA", "setting": "[1]; [8]", "result": 79.4, "unit": "plants/m row"},
      {"measurement": "Root weight", "setting": "[1]; [9]", "result": 3.8, "unit": "g"},
      {"measurement": "Shoot weight", "setting": "[1]; [9]", "result": 5.4, "unit": "g"},
      {"measurement": "Total plant weight", "setting": "[1]; [9]", "result": 9.2, "unit": "g"},
      {"measurement": "Crop establishment plants/m row 25 DAA", "setting": "[1]; [9]", "result": 74.8, "unit": "plants/m row"},
      {"measurement": "Crop establishment plants/m row 38 DAA", "setting": "[1]; [9]", "result": 80.8, "unit": "plants/m row"},
      {"measurement": "Root weight", "setting": "[1]; [10]", "result": 3.0, "unit": "g"},
      {"measurement": "Shoot weight", "setting": "[1]; [10]", "result": 5.0, "unit": "g"},
      {"measurement": "Total plant weight", "setting": "[1]; [10]", "result": 8.1, "unit": "g"},
      {"measurement": "Crop establishment plants/m row 25 DAA", "setting": "[1]; [10]", "result": 75.6, "unit": "plants/m row"},
      {"measurement": "Crop establishment plants/m row 38 DAA", "setting": "[1]; [10]", "result": 82.5, "unit": "plants/m row"},
      {"measurement": "Root weight", "setting": "[1]; [11]", "result": 2.9, "unit": "g"},
      {"measurement": "Shoot weight", "setting": "[1]; [11]", "result": 5.2, "unit": "g"},
      {"measurement": "Total plant weight", "setting": "[1]; [11]", "result": 8.1, "unit": "g"},
      {"measurement": "Crop establishment plants/m row 25 DAA", "setting": "[1]; [11]", "result": 74.0, "unit": "plants/m row"},
      {"measurement": "Crop establishment plants/m row 38 DAA", "setting": "[1]; [11]", "result": 79.9, "unit": "plants/m row"},
      {"measurement": "crop establishment in field, root weight, shoot weight and total plant weight compared with untreated control", "setting": "[1]; in words, treated wheat grains, 10-100 g ai/100 kg", "result": "higher"},
      {"measurement": "% emergence (20 DAS)", "setting": "[2]; [12]", "result": 76.67, "unit": "%"},
      {"measurement": "% vigor (20 DAS)", "setting": "[2]; [12]", "result": 86.67, "unit": "%"},
      {"measurement": "% emergence (20 DAS)", "setting": "[2]; [13]", "result": 73.33, "unit": "%"},
      {"measurement": "% vigor (20 DAS)", "setting": "[2]; [13]", "result": 83.33, "unit": "%"},
      {"measurement": "Emergence speed index (ESI)", "setting": "[3]; 10 g ai/100 kg", "result": 6.9},
      {"measurement": "Emergence speed index (ESI)", "setting": "[3]; 50 g ai/100 kg", "result": 6.3},
      {"measurement": "Emergence speed index (ESI)", "setting": "[3]; 100 g ai/100 kg", "result": 6.5},
      {"measurement": "Emergence speed index (ESI)", "setting": "[4]; 10 g ai/100 kg", "result": 32.7},
      {"measurement": "Emergence speed index (ESI)", "setting": "[4]; 50 g ai/100 kg", "result": 32.9},
      {"measurement": "Emergence speed index (ESI)", "setting": "[4]; 100 g ai/100 kg", "result": 32.6},
      {"measurement": "Emergence speed index (ESI)", "setting": "[5]; 10 g ai/100 kg", "result": 22.7},
      {"measurement": "Emergence speed index (ESI)", "setting": "[5]; 50 g ai/100 kg", "result": 23.0},
      {"measurement": "Emergence speed index (ESI)", "setting": "[5]; 100 g ai/100 kg", "result": 22.5},
      {"measurement": "phytotoxicity in the emergent plants", "setting": "[6]; in vivo", "result": "no phytotoxicity observed"},
      {"measurement": "emergence index of treated seeds compared with untreated seeds", "setting": "[6]; in words, corn, cotton and wheat seeds, 10-100 g ai/100 kg", "result": "more efficient than untreated seeds"}
    ]}
  ]
}
